The source of these data is patent US20230053649A1 (Cedilla Therapeutics, Inc., priority 2021, published 2023).

The target of test [1] is T1, TEAD1 protein (YAP Binding Domain) (Homo sapiens, UniProt P28347). Put plainly: TEAD1 lipid pocket compound displacement assay (CDA, TR-FRET). To be noted: read-out: CDA IC50, displacement of Cy5-probe from His-TEAD1, 60 minutes at room temperature.
Experimental: Compound Displacement Assay.
(§1) A TEAD1 lipid pocket displacement assay was carried out according to the following protocol. Purified His-tagged TEAD1 protein (YAP Binding Domain) was pre-mixed with a Cy5-probe (Cy5-conjugated to a small molecule that binds in the TEAD1 lipid pocket) and Terbium-labeled anti-His antibody (Cisbio Cat 61HI2TLB). The binding of the Cy5-probe to anti-His-Tb/His-tag TEAD1 complex yielded a TR-FRET signal. […] After 60 minutes incubation at room temperature of compounds with the His-TEAD1/anti-His-Tb/Cy5-probe complex, the plate was read on a plate reader (BMG ClarioStar Cat 430-1300) using TR-FRET mode with wavelengths of 665 nm/620 nm. The potency of compounds as TEAD1 lipid pocket binders was determined by IC50 value generated using a non-linear 4 parameter curve fit.
Test [2] relates to mesothelioma cell line NCI-H226. Put plainly: 72H TEAD Proliferation Assay (Cell Titer-Glo 2.0). Conditions: Homo sapiens, CTG 2.0, cell line not given in Table 1 (NCI-H226 TEAD-responsive, NCI-H28 non-responsive counter-screen). It counts as cell-based. As for the experimental part: 72H TEAD Proliferation Assay.
The effect of TEAD inhibition on cell proliferation was assayed using Cell Titer Glo (CTG) 2.0 to measure response in mesothelioma cell lines NCI-H226 (ATCC, #CRL-5826) and NCI-H28 (ATCC, #CRL-5820).
The 72H TEAD Proliferation assay utilizes Cell Titer-Glo 2.0 (Promega, #G9243) to measure the proliferation of cells in the presence or absence of compound. Cell Titer-Glo 2.0 determines the amount of viable cells by quantifying ATP (an indication of metabolically active cells). It utilizes the conversion of Luciferin to Oxyluciferin and a luminescent signal with the use of ATP to report the quantity of viable cells in culture. Within cells that are continually growing, ATP is being synthesized to meet their metabolic demands, meanwhile the opposite is true for cells that are dying or slowing down their proliferation and either no longer using ATP or are using less, respectively. The NF2-deficient NCI-H226 has been genetically validated as a cell line that is sensitive to TEAD inhibition. The NF2-wild type NCI-H28 has been genetically validated as a cell line that is not sensitive to TEAD inhibition and grows independently of TEAD activity.
Compounds were screened against the responsive NCI-H226 cell line to assess the compounds' ability to inhibit TEAD and cell growth. Compounds were also screened against the non-responsive NCI-H28 cell line to ascertain whether the inhibition of cell growth was due to inhibition of the target TEAD or whether the inhibition was due to off-target cytotoxicity.
Both NCI-H226 and NCI-H28 cells were grown at 37° C. with 5% CO2 using Growth Medium 1.
Anti-proliferative effect of compounds that inhibits TEAD activity measured by CTG
1) Assay ready plates (ARPs) were prepared by Echo acoustic liquid handler. For each compound, duplicate of 10-point half-log dilution series were dispensed in a 384-well microplate (Corning 3571).
3) Before use, ARPs were allowed to warm up to room temperature for 30 min.
4) ARPs were spun for 5 minutes at 1500RPM before removing the plate seals.
5) NCI-H226 or NCI-H28 cells were harvested from culture in Assay Medium 1 and the multidrop Combi reagent dispenser was used to seed cells at 500 cells per 50ul in each well of the ARPs and one Corning 3571 plate without compounds for Time 0 (TO) readout.
6) The TO plate was incubated for 2 hours at 37° C. with 5% CO2 to allow cells to settle, then the CTG Assay was performed.
7) All ARPs were incubated for 72 hours at 37° C. with 5% CO2, then the CTG Assay was performed for Time 72H (T72) readout.
8) CTG Assay: Bravo liquid handler (Agilent) was used to add 25ul of CTG 2.0 to all columns of the plate except for Column 24, which was used to subtract out the background. After CTG addition, plates were placed on shaker at 800RPM for 15 minutes at room temperature and kept in the dark. Luminescence was measured using EnVision multilabel plate reader with ultra-sensitive detection module.
9) Data Analysis: First background luminescence (no CTG wells) was subtracted from luminescence reading of all wells, then TO luminescence was subtracted from T72 luminescence. To compare anti-proliferative effect of compounds, GI50 was obtained by fitting dose response curves with nonlinear regression curve fit.
A general note: ATP-based viability assays read luminescence as a measure of living cells.

Test [3] has as its target T1, TEAD1 protein (YAP Binding Domain). Put plainly: biochemical.
Experimental: Compound Displacement Assay.
as §1
Test [4] has as its system EGFR-mutant NSCLC PC-9 cells. Nature of the test: Apoptosis (caspase-3/7, IncuCyte) in combination with EGFR inhibitor Osimertinib. The format is cell-based. As for the experimental part: Apoptosis was detected by CellEvent Caspase 3/7 Green ReadyProbes Reagent (ThermoFisher), a fluorogenic indicator of activated caspase-3/7. Cell death (apoptsis) and cell growth (phase confluence) over time were captured by IncuCyte live cell imaging system (Essen Bioscience) and quantified by IncuCyte S3 software (Essen Bioscience). Apoptotic Index was calculated by dividing apoptosis signal with phase confluence.

Each structure is given as a SMILES string. Some results are limits rather than exact numbers.

T1 sequence (P28347 167-426 limits assumed): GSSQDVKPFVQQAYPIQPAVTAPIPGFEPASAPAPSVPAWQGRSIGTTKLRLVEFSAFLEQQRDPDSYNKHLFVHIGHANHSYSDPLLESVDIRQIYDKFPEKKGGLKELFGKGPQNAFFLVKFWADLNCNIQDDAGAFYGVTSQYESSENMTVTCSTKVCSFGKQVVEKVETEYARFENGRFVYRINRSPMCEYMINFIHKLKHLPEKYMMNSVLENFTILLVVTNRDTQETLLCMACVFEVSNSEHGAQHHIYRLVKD

Consider `COc1ccc2c(N3CCC(C(F)(F)F)CC3)nc(C(N)=O)cc2c1` [Compound 66], for which the half-maximal inhibitory concentration (IC50) in test [1] was below 150 nM. Further, the 50% growth inhibitory concentration (GI50) in test [2] lay within 1000 to 5000 nM.

On to `COc1cc(N2CCC(C(F)(F)F)CC2)c2ncc(C(=O)N[C@H](C)CO)cc2c1` [Compound I-1, (R)-N-(1-hydroxypropan-2-yl)-6-methoxy-8-(4-(trifluoromethyl)piperidin-1-yl)quinoline-3-carboxamide], for which, in test [3], the half-maximal inhibitory concentration (IC50) lay in the range of 150 to 300 nM. For the same compound, the “Fold Change over DMSO at 48 hrs (apoptotic index)” value in test [4] (I-1 (10 μM) alone) is reported as 1.0; in test [4] (Osimertinib (100 nM) + I-1 (0.37 μM), 24 h Osimertinib pre-treatment), 4.1; in test [4] (Osimertinib (100 nM) + I-1 (1.1 μM), 24 h Osimertinib pre-treatment) it was 5.4; in test [4] (Osimertinib (100 nM) + I-1 (10 μM), 24 h Osimertinib pre-treatment), 7.0. In test [2], this compound showed a 50% growth inhibitory concentration (GI50) of 500 to 1000 nM.

`C[C@H](NC(=O)c1ccc2c(N3CCC(C(F)(F)F)CC3)nccc2c1)c1ccccn1` [Compound I-51, (S)-N-(1-(Pyridin-2-yl)ethyl)-1-(4-(trifluoromethyl)piperidin-1-yl)isoquinoline-6-carboxamide]: the half-maximal inhibitory concentration (IC50) in test [3] was below 150 nM. In test [2], this compound yielded a concentration for 50% growth inhibition (GI50) of at most 500 nM.

As for `C[C@H](CO)NC(=O)c1ccc2c(N3CCC(C(F)(F)F)CC3)nc(C(F)(F)F)cc2c1` [Compound I-52, (R)-N-(1-hydroxypropan-2-yl)-3-(trifluoromethyl)-1-(4-(trifluoromethyl)piperidin-1-yl)isoquinoline-6-carboxamide], in test [3], the IC50 was below 150 nM. For the same compound, the concentration for 50% growth inhibition (GI50) in test [2] is at most 500 nM.

`O=C(O)c1ccc2c(N3CCC(C(F)(F)F)CC3)cccc2c1` [Compound I-57, 5-(4-(Trifluoromethyl)piperidin-1-yl)-2-naphthoic acid] showed an IC50 in test [3] of 150 to 300 nM. Moreover, in test [2], the concentration for 50% growth inhibition (GI50) was above 5000 nM.

In the case of `C[C@H](NC(=O)c1ccc2c(N3CCC(C(F)(F)F)CC3)cccc2c1)c1ccccn1` [Compound I-58, (S)-N-(1-(pyridin-2-yl)ethyl)-5-(4-(trifluoromethyl)piperidin-1-yl)-2-naphthamide], in test [3], the IC50 is below 150 nM. In test [2], this compound registered a GI50 of at most 500 nM.

For the compound `C[C@H](CO)NC(=O)c1ccc2c(N3CCC(C(F)(F)F)CC3)cccc2c1` [Compound I-59, (R)-N-(1-hydroxypropan-2-yl)-5-(4-(trifluoromethyl)piperidin-1-yl)-2-naphthamide], the 50% inhibitory concentration (IC50) in test [3] was 150 to 300 nM. This compound returned a 50% growth inhibitory concentration (GI50) in test [2] of at most 500 nM.

In the case of `C[C@H](CO)NC(=O)c1cnc2c(N3CCC(C(F)(F)F)CC3)cccc2c1` [Compound I-60, (R)-N-(1-hydroxypropan-2-yl)-8-(4-(trifluoromethyl)piperidin-1-yl)quinoline-3-carboxamide], the IC50 in test [3] is 150 to 300 nM. In test [2], this compound registered a GI50 of 500 to 1000 nM.

With `COC[C@H](C)NC(=O)c1cnc2c(N3CCC(C(F)(F)F)CC3)cccc2c1` [Compound I-61, (S)-N-(1-methoxypropan-2-yl)-8-(4-(trifluoromethyl)piperidin-1-yl)quinoline-3-carboxamide], the 50% inhibitory concentration (IC50) in test [3] lay in the range of 150 to 300 nM. In addition, the GI50 in test [2] lay within 500 to 1000 nM.

`CCOc1cc2cc(C(=O)N[C@H](C)CO)ccc2c(N2CCC(C(F)(F)F)CC2)n1` [Compound I-62, (R)-3-ethoxy-N-(1-hydroxypropan-2-yl)-1-(4-(trifluoromethyl)piperidin-1-yl)isoquinoline-6-carboxamide]: in test [3], the IC50 is below 150 nM. Moreover, the GI50 in test [2] is at most 500 nM.

As for `C[C@H](CO)NC(=O)c1ccc2c(N3CCC(C(F)(F)F)CC3)nccc2c1` [Compound I-63, (R)-N-(1-hydroxypropan-2-yl)-1-(4-(trifluoromethyl)piperidin-1-yl)isoquinoline-6-carboxamide], in test [3], the half-inhibitory concentration (IC50) is 300 to 500 nM. In test [2], this compound displayed a GI50 of 1000 to 5000 nM.

In test [3], `COc1cc2cc(C(=O)N[C@@H](C)c3ccccn3)ccc2c(N2CCC(C(F)(F)F)CC2)n1` [Compound I-64, (S)-3-methoxy-N-(1-(pyridin-2-yl)ethyl)-1-(4-(trifluoromethyl)piperidin-1-yl)isoquinoline-6-carboxamide] displayed an IC50 below 150 nM. Further, the concentration for 50% growth inhibition (GI50) in test [2] was at most 500 nM.

`CC[C@H](CO)NC(=O)c1ccc2c(N3CCC(C(F)(F)F)CC3)nc(OC)cc2c1` [Compound I-65, (R)-N-(1-hydroxybutan-2-yl)-3-methoxy-1-(4-(trifluoromethyl)piperidin-1-yl)isoquinoline-6-carboxamide] returned a 50% inhibitory concentration (IC50) in test [3] below 150 nM. The compound further registered a GI50 in test [2] of at most 500 nM.

In the case of `C#Cc1ccc(-c2cccc3cc(C(=O)N[C@@H](C)c4ccccn4)cnc23)cc1` [I′-29, (S)-8-(4-ethynylphenyl)-N-(1-(pyridin-2-yl)ethyl)quinoline-3-carboxamide], in test [3], the IC50 is below 150 nM. This compound also registered a concentration for 50% growth inhibition (GI50) in test [2] of 1000 to 5000 nM.

Turning to `C[C@H](NC(=O)c1cnc2c(-c3ccc(C#N)cc3)cccc2c1)c1ccccn1` [I′-32, (S)-8-(4-cyanophenyl)-N-(1-(pyridin-2-yl)ethyl)quinoline-3-carboxamide], the IC50 in test [3] was 300 to 500 nM. For the same compound, the GI50 in test [2] lay in the range of 1000 to 5000 nM.

`COc1cc(-c2ccc(C(C)(C)C)cc2)c2ncc(C(=O)N[C@H](C)CO)cc2c1` [I′-33, (R)-8-(4-(tert-butyl)phenyl)-N-(1-hydroxypropan-2-yl)-6-methoxyquinoline-3-carboxamide]: the IC50 in test [3] was in the range of 150 to 300 nM. Also, the GI50 in test [2] lay in the range of 500 to 1000 nM.

In test [3], `COc1cc(-c2ccc(C(C)(C)O)cc2)c2ncc(C(=O)N[C@H](C)CO)cc2c1` [I′-34, (R)-N-(1-hydroxypropan-2-yl)-8-(4-(2-hydroxypropan-2-yl)phenyl)-6-methoxyquinoline-3-carboxamide] displayed an IC50 of 300 to 500 nM. Also, in test [2], the GI50 was above 5000 nM.

Take `CC[C@H](CO)NC(=O)c1ccc2c(-c3ccc(C(F)(F)F)cc3)nc(OC)cc2c1` [I″-53, (R)-N-(1-hydroxybutan-2-yl)-3-methoxy-1-(4-(trifluoromethyl)phenyl)isoquinoline-6-carboxamide]: the half-inhibitory concentration (IC50) in test [3] was below 150 nM. Further, the 50% growth inhibitory concentration (GI50) in test [2] is at most 500 nM.

For `COC[C@H](C)NC(=O)c1ccc2c(-c3ccc(C(F)(F)F)cc3)nc(OC)cc2c1` [I″-54, (S)-3-Methoxy-N-(1-methoxypropan-2-yl)-1-(4-(trifluoromethyl)phenyl)isoquinoline-6-carboxamide], the IC50 in test [3] is below 150 nM. The GI50 in test [2] was at most 500 nM.

The compound `COc1cc2cc(C(=O)N[C@@H](C)c3ccccn3)ccc2c(-c2ccc(C(F)(F)F)cc2)n1` [I″-55, (S)-3-methoxy-N-(1-(pyridin-2-yl)ethyl)-1-(4-(trifluoromethyl)phenyl)isoquinoline-6-carboxamide] had a half-inhibitory concentration (IC50) in test [3] below 150 nM. In test [2], this compound yielded a 50% growth inhibitory concentration (GI50) of at most 500 nM.

As to `C[C@H](CO)NC(=O)c1ccc2c(-c3ccc(C(F)(F)F)cc3)[nH]c(=O)cc2c1` [I″-56], the IC50 in test [3] is above 500 nM. In test [2], this compound had a 50% growth inhibitory concentration (GI50) above 5000 nM.

As for `C=CC(=O)Nc1cc(Nc2nccc(-c3cn(C)c4ccccc34)n2)c(OC)cc1N(C)CCN(C)C` [Osimertinib, reference compound], the “Fold Change over DMSO at 48 hrs (apoptotic index)” value in test [4] (Osimertinib (100 nM) alone) came out at 2.6.

The IC50 is the concentration at which inhibition is half-maximal. The term GI50 denotes the concentration giving 50% growth inhibition.
